The text below walks through data of PubChem BioAssay (NCI).

Among the test systems are IGROV1 ovarian; CAKI-1 renal; UACC-62 melanoma; SK-OV-3 ovarian; SNB-19 CNS; SW-620 colon; T-47D breast; NCI-H460 lung; HCC-2998 colon; OVCAR-3 ovarian.
Common to all, as to assay: DTP human tumour cell line panel, 48 h

“And” between values parts separate entries of the source, which are not always exact repeats. Identical values can stand only once.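 Briefly, cells in 96-well plates were exposed to five compound concentrations for 48 h, and endpoints were estimated by linear interpolation. The concentration for 50% growth inhibition is given as GI50. TGI: total growth inhibition.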

Take `CNC(=O)c1cc(Oc2ccc(NC(=O)Nc3ccc(Cl)c(C(F)(F)F)c3)cc2)ccn1`: the GI50 (commonly the concentration at which growth is held to half of that of the control) is 3.52 µM and 3.44 µM and 2.6 µM in the test with IGROV1 ovarian; 3.21 µM and 2.01 µM and 2.91 µM in the test with CAKI-1 renal; 2.4 µM and 1.96 µM and 1.7 µM with UACC-62 melanoma; 3.14 µM and 3.28 µM and 2.5 µM in the test with SK-OV-3 ovarian; 4.75 µM and 4.38 µM and 3.47 µM in the test with SNB-19 CNS; 4.26 µM and 3.05 µM and 2.87 µM in the test on SW-620 colon. Also, the GI50 in the test with T-47D breast is 1.82 µM and 2.31 µM and 1.87 µM; with NCI-H460 lung, 3.17 µM and 2.88 µM and 2.44 µM; with HCC-2998 colon, 3.4 µM and 1.58 µM and 2.81 µM. The TGI (in general, the concentration giving total growth inhibition) in the test with IGROV1 ovarian is > 10 µM and 15.3 µM and 9.14 µM; with CAKI-1 renal, > 10 µM and 4.3 µM and 8.81 µM; with UACC-62 melanoma, 8.52 µM and 5.23 µM and 4.49 µM; in the test with SK-OV-3 ovarian, 9.87 µM and 12.5 µM and 7.31 µM; with SNB-19 CNS it was > 10 µM and 17.7 µM and 11.8 µM; in the test on SW-620 colon, > 10 µM and 12 µM and 9.35 µM. Moreover, the TGI with T-47D breast was > 10 µM and 7.43 µM and 7.85 µM; in the test with NCI-H460 lung it was > 10 µM and 10.2 µM and 7.09 µM; in the test with HCC-2998 colon, > 10 µM and 3.11 µM and 8.92 µM.
Turning to `S=C1NC(c2ccccc2)NC(c2ccccc2)S1` (stereo not given), the TGI in the test on IGROV1 ovarian, in the test on CAKI-1 renal, in the test with UACC-62 melanoma, with OVCAR-3 ovarian, with SK-OV-3 ovarian and in the test on SNB-19 CNS was over 100 µM throughout. In addition, the TGI is over 100 µM with SW-620 colon, over 100 µM in the test with T-47D breast and 63.3 µM in the test with NCI-H460 lung.
As to `COc1ccc(N2CCN(c3nc(-c4ccccn4)nc4sc5c(c34)CCCCCC5)CC2)cc1`, the GI50 in the test on IGROV1 ovarian was 5.34 µM; with CAKI-1 renal, 5.4 µM; with UACC-62 melanoma, 6.86 µM; in the test with OVCAR-3 ovarian it was 8.61 µM; in the test with SK-OV-3 ovarian, over 100 µM; in the test on SW-620 colon it was 5.08 µM. Besides, the GI50 in the test with T-47D breast is 6.31 µM; in the test with NCI-H460 lung, 4.67 µM; with HCC-2998 colon, 10.3 µM. Besides, the TGI in the test with IGROV1 ovarian, with CAKI-1 renal, in the test on UACC-62 melanoma, in the test with OVCAR-3 ovarian, in the test on SK-OV-3 ovarian and in the test with SW-620 colon was over 100 µM each time. Further, the TGI in the test on T-47D breast, in the test on NCI-H460 lung and in the test on HCC-2998 colon was over 100 µM throughout.
As for `O=C(Nc1cccc(Cl)c1)Nc1cc(C(F)(F)F)ccc1Cl`, the GI50 is 2.8 µM in the test with UACC-62 melanoma; 2.61 µM in the test on OVCAR-3 ovarian; 3.54 µM in the test with SK-OV-3 ovarian; 3.81 µM in the test with SNB-19 CNS; 3.28 µM in the test with SW-620 colon; 3.53 µM in the test with T-47D breast. The figures for the GI50 with NCI-H460 lung and with HCC-2998 colon were 2.54 µM and 2.53 µM, respectively. In addition, the TGI in the test on UACC-62 melanoma is 13.7 µM; in the test with OVCAR-3 ovarian, 7.19 µM; in the test on SK-OV-3 ovarian it was 16.5 µM; in the test with SNB-19 CNS it was 19.6 µM; in the test with SW-620 colon, 10.6 µM; in the test with T-47D breast it was 31.3 µM. Besides, the TGI in the test on NCI-H460 lung came out at 6.84 µM; in the test on HCC-2998 colon, 5.88 µM.
For `NC(=O)C1CCCN1Cc1ccc2c(c1)OCO2` (stereo not given), the TGI in the test with IGROV1 ovarian, in the test on CAKI-1 renal, with UACC-62 melanoma, in the test on OVCAR-3 ovarian, with SK-OV-3 ovarian and in the test on SNB-19 CNS was over 100 µM throughout. The TGI in the test with SW-620 colon, with T-47D breast and in the test with NCI-H460 lung was over 100 µM in each case.
As to `COC1C[C@H](O[C@@H]2C[C@H](O[C@@H]3C[C@H](O[C@@H]4C(=O)c5c(cc6cc(O[C@H]7C[C@@H](O[C@H]8C[C@@H](O)[C@H](O)C(C)O8)[C@H](O)C(C)O7)c(C)c(O)c6c5O)C[C@H]4C(OC)C(=O)[C@@H](O)[C@@H](C)O)OC(C)[C@H]3O)OC(C)[C@@H]2O)OC(C)[C@@H]1O` (stereo not given in full), the GI50 is 8 µM in the test on CAKI-1 renal; 0.0434 µM in the test on UACC-62 melanoma; 0.0936 µM with OVCAR-3 ovarian; 0.105 µM with SK-OV-3 ovarian; 0.101 µM in the test on SNB-19 CNS; 0.127 µM in the test with SW-620 colon. Also, the figures for the concentration for 50% growth inhibition (GI50) in the test on T-47D breast, in the test on NCI-H460 lung and with HCC-2998 colon were 0.0701 µM, 0.0802 µM and 0.0961 µM, respectively. For the same molecule, the TGI with CAKI-1 renal was over 32.5 µM; in the test with UACC-62 melanoma, 0.134 µM; in the test with OVCAR-3 ovarian it was 0.773 µM; in the test with SK-OV-3 ovarian, over 32.5 µM; in the test with SNB-19 CNS, over 32.5 µM; with SW-620 colon, over 32.5 µM. The TGI with T-47D breast is 7 µM; with NCI-H460 lung, over 32.5 µM; with HCC-2998 colon it was 0.615 µM.
Regarding `Nc1[nH]c(=S)[nH]c(=O)c1N=Nc1c(Br)cc(S(N)(=O)=O)cc1Br`, the total growth inhibition concentration (TGI) in the test with IGROV1 ovarian, with CAKI-1 renal, with UACC-62 melanoma, in the test with OVCAR-3 ovarian, in the test on SK-OV-3 ovarian and in the test with SNB-19 CNS was over 100 µM throughout. In addition, the concentration for total growth inhibition (TGI) in the test on SW-620 colon, in the test on T-47D breast and with NCI-H460 lung was over 100 µM throughout.
Take `CCN(CC(O)COc1ccc2c(c1)[n+]([O-])nc(N)[n+]2[O-])C(C)=O` (stereo not given): the TGI in the test with IGROV1 ovarian, in the test with CAKI-1 renal, with UACC-62 melanoma, in the test with OVCAR-3 ovarian, with SK-OV-3 ovarian and with SNB-19 CNS was over 100 µM throughout. Also, the TGI in the test with SW-620 colon, in the test on T-47D breast and in the test on NCI-H460 lung was over 100 µM each time.
Regarding `COC(=O)C1(N2CCOCC2)CCC([C@@H](c2ccccc2)C(C)[N+](=O)[O-])C1` (stereo not given in full), the TGI in the test with UACC-62 melanoma is over 100 µM; with OVCAR-3 ovarian, 71.3 µM; in the test on SK-OV-3 ovarian, over 100 µM; in the test on SNB-19 CNS it was over 100 µM; with SW-620 colon, over 100 µM; with T-47D breast it was 9.62 µM. In addition, the TGI in the test with NCI-H460 lung and in the test with HCC-2998 colon was over 100 µM in each case.
Turning to `c1ccc2cc(Cn3c(-c4cccc5ccccc45)[n+](Cc4ccc5ccccc5c4)c4c5ccccc5c5ccccc5c43)ccc2c1`, the GI50 is 0.302 µM in the test on UACC-62 melanoma; 0.322 µM in the test with SK-OV-3 ovarian; 0.318 µM in the test with SNB-19 CNS; 0.269 µM in the test on T-47D breast; 0.254 µM in the test with NCI-H460 lung; 0.328 µM with HCC-2998 colon. In addition, the TGI in the test on UACC-62 melanoma came out at 1.35 µM; in the test on SK-OV-3 ovarian, 1.62 µM; with SNB-19 CNS, 1.62 µM; in the test on T-47D breast, 1.7 µM; in the test with NCI-H460 lung, 1.41 µM; in the test with HCC-2998 colon, 1.59 µM.
`CN(N=O)N1C(=O)SCC(c2ccccc2)(c2ccccc2)C1=O`: the concentration for total growth inhibition (TGI) was over 100 µM with CAKI-1 renal; over 100 µM in the test with UACC-62 melanoma; over 100 µM with OVCAR-3 ovarian; 64.6 µM in the test with SK-OV-3 ovarian; over 100 µM in the test with SNB-19 CNS; over 100 µM in the test with SW-620 colon. Moreover, the TGI in the test on T-47D breast, in the test with NCI-H460 lung and with HCC-2998 colon was over 100 µM each time.
Take `C=C1[C@H](O)C[C@@H](C(C)C(O)CC=C(C)C)[C@@H](O)[C@@H]2C(C)=CC[C@@H]12` (stereo not given in full): the GI50 with IGROV1 ovarian was over 100 µM; in the test with CAKI-1 renal, over 100 µM; in the test with UACC-62 melanoma it was 94.8 µM; with SK-OV-3 ovarian, over 100 µM; in the test on SNB-19 CNS, over 100 µM; in the test with SW-620 colon, over 100 µM. The GI50 with T-47D breast and with NCI-H460 lung was over 100 µM in each case. For the same molecule, the TGI in the test on IGROV1 ovarian, in the test with CAKI-1 renal, in the test on UACC-62 melanoma, in the test on SK-OV-3 ovarian, in the test on SNB-19 CNS and with SW-620 colon was over 100 µM throughout. In addition, the TGI in the test on T-47D breast and in the test on NCI-H460 lung was over 100 µM in each case.
Take `COc1cc(/C=C/[N+](=O)[O-])cc(OC)c1`: the GI50 in the test with IGROV1 ovarian was 2.83 µM; with UACC-62 melanoma, 2.42 µM; in the test on OVCAR-3 ovarian, 1.56 µM; in the test on SK-OV-3 ovarian, 11.1 µM; in the test on SNB-19 CNS it was 8.49 µM; in the test with SW-620 colon, 1.68 µM. Further, the GI50 was 2.17 µM with T-47D breast, 3.51 µM with NCI-H460 lung and 1.98 µM in the test on HCC-2998 colon. Moreover, the TGI worked out at 8.63 µM in the test with IGROV1 ovarian; 7.34 µM in the test with UACC-62 melanoma; 3.07 µM in the test on OVCAR-3 ovarian; 23.1 µM in the test on SK-OV-3 ovarian; 22.1 µM in the test on SNB-19 CNS; 3.65 µM with SW-620 colon. Moreover, the TGI in the test with T-47D breast is 7.03 µM; in the test on NCI-H460 lung it was 10.5 µM; in the test with HCC-2998 colon, 3.59 µM.
With `C=C1C(=O)O[C@H]2[C@H]1CC/C(COC(=O)NCCc1ccc(Br)cc1)=C\CC[C@@]1(C)O[C@@H]21`, the GI50 with IGROV1 ovarian is 1.08 µM; in the test with CAKI-1 renal, 1.42 µM; with OVCAR-3 ovarian, 0.984 µM; in the test with SK-OV-3 ovarian, 10.8 µM; in the test on SNB-19 CNS, 1.39 µM; with SW-620 colon, 0.711 µM. In addition, the GI50 in the test on T-47D breast was 1.38 µM; in the test with NCI-H460 lung, 2.06 µM; with HCC-2998 colon, 1.71 µM. Further, the TGI in the test on IGROV1 ovarian is 2.59 µM; in the test with CAKI-1 renal it was 2.77 µM; in the test on OVCAR-3 ovarian, 2.27 µM; in the test with SK-OV-3 ovarian it was 22.8 µM; with SNB-19 CNS, 2.97 µM; in the test with SW-620 colon it was 2.4 µM. Moreover, the TGI in the test with T-47D breast turned out to be 3.72 µM; in the test on NCI-H460 lung, 4.64 µM; in the test on HCC-2998 colon it was 3.37 µM.
With `Clc1ccc(Nc2nnc(COc3ccccc3)c3ccccc23)cc1`, the GI50 is 1.14 µM with IGROV1 ovarian; 1.24 µM in the test on UACC-62 melanoma; 2.87 µM in the test with OVCAR-3 ovarian; 2.38 µM with SK-OV-3 ovarian; 3.2 µM in the test on SNB-19 CNS; 2.86 µM with SW-620 colon. For the same molecule, the GI50 is 0.881 µM with T-47D breast, 2.7 µM in the test with NCI-H460 lung and 3.81 µM in the test on HCC-2998 colon. Also, the TGI with IGROV1 ovarian was determined as 6.37 µM; in the test with UACC-62 melanoma it was 5.69 µM; in the test with OVCAR-3 ovarian it was 9.8 µM; in the test with SK-OV-3 ovarian it was 9.96 µM; in the test with SNB-19 CNS, 12 µM; in the test with SW-620 colon it was 7.79 µM. Besides, the TGI in the test on T-47D breast came to 8.44 µM; in the test on NCI-H460 lung, 7.12 µM; in the test on HCC-2998 colon, 8.36 µM.
